Measurements: ChEMBL document CHEMBL1137934, “Inhibition of monoamine oxidases by coumarin-3-acyl derivatives: biological activity and computational study” (Bioorg Med Chem Lett, 2004)

How the values were obtained:
[1] = biological target: Amine oxidase [flavin-containing] A (Bos taurus) (UniProt P21398)
[2] = biological target: Amine oxidase [flavin-containing] B (Bos taurus) (UniProt P56560)
Chain of Amine oxidase [flavin-containing] B (Bos taurus) (P56560 whole entry, looked up): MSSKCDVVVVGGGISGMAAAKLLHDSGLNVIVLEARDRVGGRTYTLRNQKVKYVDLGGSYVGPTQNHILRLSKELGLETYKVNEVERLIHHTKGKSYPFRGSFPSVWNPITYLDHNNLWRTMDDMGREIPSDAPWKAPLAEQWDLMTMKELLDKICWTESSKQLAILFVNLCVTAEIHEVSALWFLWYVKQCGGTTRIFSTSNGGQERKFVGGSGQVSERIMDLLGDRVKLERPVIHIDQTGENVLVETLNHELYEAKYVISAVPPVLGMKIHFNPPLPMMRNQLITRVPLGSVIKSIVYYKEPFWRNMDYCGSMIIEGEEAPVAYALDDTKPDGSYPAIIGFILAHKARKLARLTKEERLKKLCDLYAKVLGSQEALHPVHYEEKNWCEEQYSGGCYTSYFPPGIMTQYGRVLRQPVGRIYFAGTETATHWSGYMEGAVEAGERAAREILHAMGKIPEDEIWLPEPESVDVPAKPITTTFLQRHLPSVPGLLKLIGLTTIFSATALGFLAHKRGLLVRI

CCOC(=O)C1=Cc2cc(Cl)ccc2CC1=O
IC50 [1]: 501 nM
IC50 [2]: 1000 nM
